# Values joined by “and” are separate entries in the source; they are usually repeats but may differ in a detail not shown here. Equal values may be shown once.
# What was measured:
# other fungal strains = test: Anti-cell growth activity on other fungal strains (summary); format: cell-based; conditions: range over other fungal strains of Table 3
# Method: (§1) The anti-cell growth activity of Compound 1 on other fungal strains, as well as bacterial strains and cultured mammalian cells, was also tested (Table 3). […] Bacterial cell growth and mammalian cell growth was inhibited at substantially higher concentrations of Compound 1.
# C. albicans 90028 = test: Candida growth inhibition, C. albicans 90028; format: cell-based
# Method: (§2) There are numerous assays that can be used to measure the inhibition of growth of a fungus such as Candida. In one example, cultures of Candida, e.g., C. albicans strains DSY1024 and SC5314, C. krusei ATCC 6258, and C. glabrata ATCC 90030, are subcultured from cryopreserved stocks onto Sabouraud's dextrose agar plates. Blastoconidia are suspended into RPMI-MOPS medium and inoculated (500 cfu/well) into 96-well plates containing test compounds in a final volume of 100 μL/well. After 22 hours at 35° C., 25 μL of XTT (2,3-bis(2-methoxy-4-nitro-5-sulfophenyl)-5-(phenylamino)carbonyl]-2H-tetrazolium hydroxide), (100 μg/mL) with PMS (phenazine methyl sulfate, 5 μM) are added to each well, followed by 2 hours of shaking. Growth is assessed spectrophotometrically by measuring the appearance of soluble formazan stain at 450 nm using an Emax microplate reader. Validity of the assay is confirmed by determination of the C. albicans minimum inhibitory concentration (MIC) for known antifungal agents such as amphotericin B, 5-flucytosine, fluconazole, nikkomycin Z, and polyoxin D.
# C. albicans 93-1226 = test: Candida growth inhibition, C. albicans 93-1226; format: cell-based; conditions: C. albicans 93-1226, fluconazole-resistant strain
# Method: as §2
# (§3) Using the cell growth assay described herein, Compound 1 was tested for its ability to inhibit growth of C. albicans, C. kefyr, C. tropicalis, C. krusei, and C. glabrata.
# Candida = test: Anti-Candida activity by backbone length; format: cell-based; conditions: X=7
# Text: The variable X denotes the length of a saturated carbon backbone. The antifungal activity of the claimed compounds changes in part based on the length of this backbone. […] Preferably, X is an integer between 5 and 7, inclusive, although longer carbon chains (X=8-10) may preserve or increase antifungal activity.
# E. faecalis 29212 = test: Anti-cell growth activity, E. faecalis 29212; format: cell-based
# Method: as §1
# S. cerevisiae AD1-9 = test: Anti-cell growth activity, S. cerevisiae AD1-9; format: cell-based
# Method: as §1
# C. albicans #64 = test: Candida growth inhibition, C. albicans #64; format: cell-based
# Method: as §2, §3
# C. tropicalis 750 = test: Candida growth inhibition, C. tropicalis 750; format: cell-based
# Method: as §2, §3
# S. cerevisiae 2229-5C = test: Anti-cell growth activity, S. cerevisiae 2229-5C; format: cell-based
# Method: as §1
# S. aureus 29213 = test: Anti-cell growth activity, S. aureus 29213; format: cell-based
# Method: as §1
# C. krusei 6258 = test: Candida growth inhibition, C. krusei 6258; format: cell-based
# Method: as §2, §3
# C. krusei 97-1037 = test: Candida growth inhibition, C. krusei 97-1037; format: cell-based
# Method: as §2, §3
# C. tropicalis 623-20 = test: Candida growth inhibition, C. tropicalis 623-20; format: cell-based
# Method: as §2, §3
# C. albicans DSY1024 = test: Candida growth inhibition (XTT), C. albicans DSY1024; format: cell-based
# Method: as §2
# LP416E8 (AC-05081-T4-3) was an organic extract of a manipulated plant cell culture from A. corsicum.
# C. glabrata 95-2421 = test: Candida growth inhibition, C. glabrata 95-2421; format: cell-based
# Method: as §2, §3
# C. albicans UTR-14 = test: Candida growth inhibition, C. albicans UTR-14; format: cell-based; conditions: C. albicans UTR-14, fluconazole-resistant strain
# Method: as §2, §3
# E. coli 700 = test: Anti-cell growth activity, E. coli 700; format: cell-based
# Method: as §1
# A. fumigatus 8001 = test: Anti-cell growth activity, A. fumigatus 8001; format: cell-based, Aspergillus fumigatus
# Method: as §1
# C. albicans SC5314 = test: Candida growth inhibition (XTT), C. albicans SC5314; format: cell-based
# Method: as §2
# C. tropicalis 97-1037 = test: Candida growth inhibition, C. tropicalis 97-1037; format: cell-based
# Method: as §2, §3
# HFF cells = test: Anti-cell growth activity, cultured mammalian HFF cells; format: cell-based
# Method: as §1
# C. glabrata 90030 = test: Candida growth inhibition, C. glabrata 90030; format: cell-based
# Method: as §2, §3
# T. rubrum = test: Dermatophyte growth inhibition (microdilution, NCCLS M27A), T. rubrum; format: cell-based, Trichophyton rubrum
# Method: (§4) The compounds of the invention are also effective against dermatophytes. Testing was performed using a microdilution method based on the NCCLS M27A antifungal protocol. Compounds to be tested were prepared in DMSO and diluted to the appropriate concentration in RPMI 1640 medium (the dermatophyte growth medium). An inoculum of each test organism was prepared from oatmeal agar plates to contain 0.5-2.5×10^3 conidia/mL. One hundred microliters of the inoculum was added to each well of a 96-well microtiter plate containing 4 μL of a test compound and 96 μL of RPMI 1640. Terbinafine (sold under the brand name Lamisil®) was used as a positive control.
# T. tonsurans = test: Dermatophyte growth inhibition (microdilution, NCCLS M27A), T. tonsurans; format: cell-based
# Method: as §4
# M. canis = test: Dermatophyte growth inhibition (microdilution, NCCLS M27A), M. canis; format: cell-based, Microsporum canis
# Method: as §4
# C. keyfer 46764 = test: Candida growth inhibition, C. keyfer 46764; format: cell-based, C. kefyr
# Method: as §2, §3
# C. albicans A26 = test: Candida growth inhibition, C. albicans A26; format: cell-based
# Method: as §2
# [1] = tested on: C. albicans, C. kefyr, C. tropicalis, C. krusei, and C. glabrata; test: Candida growth inhibition, all tested strains (summary); format: cell-based, Candida spp.; conditions: range over all tested strains incl. fluconazole-resistant 93-1226 and UTR-14
# Method: as §2, §3
# T. mentagrophytes = test: Dermatophyte growth inhibition (microdilution, NCCLS M27A), T. mentagrophytes; format: cell-based
# Method: as §4
# C. glabrata 95-2425 = test: Candida growth inhibition, C. glabrata 95-2425; format: cell-based
# Method: as §2, §3
# [2] = tested on: C. albicans strain #64 (sensitive to fluconazole); design: species or system mice; conditions: mouse, in vivo
# Method: Immunocompetent mice (ICR, Sprague-Dawley, Indianapolis, Ind.) are infected with a pathogenic strain (e.g., strain #64) of C. albicans that is sensitive to fluconazole. After 24 hours, dissemination of infection has been shown by organ colony counts (kidney, spleen, and liver) greater than 10^5 colony forming units (CFU). Treatment is begun 24 hours after infection with dosage once a day for 10 days. Untreated control mice usually die after about 16 days. After 30 days the percent survival in the group treated with fluconazole (40 mg per kg body weight, twice a day) is about 30%. In addition to measuring animal viability, the organ fungal load (in CFU) can measured.
# [3] = tested on: C. albicans UTR-14 (fluconazole-resistant clinical isolate); test: Fluconazole-resistant candidiasis in mice; format: in vivo; conditions: fluconazole-resistant C. albicans UTR-14, 40 mg per kg body weight p.o. twice daily
# Method: In a similar experiment using a fluconazole-resistant clinical isolate (e.g., C. albicans UTR-14), the percent survival after 20 days of the group treated with fluconazole (40 mg per kg body weight p.o. (twice daily)) and in the untreated group is each usually 0%.
# [4] = T. rubrum, four days at 35° C., visual inspection
# [5] = T. tonsurans, four days at 35° C., visual inspection
# [6] = M. canis, four days at 35° C., visual inspection
# [7] = T. mentagrophytes, four days at 35° C., visual inspection
compound,measurement,setting,value
O=C(O)CCCCCCC/C=C/C#CC#Cc1ccco1 [Compound 1],"IC50 values, fungal growth, lower end of range",other fungal strains,≥ 0.18 mg/L
same,IC50,C. albicans 90028,0.00122 mg/L
same,IC50,C. albicans 93-1226,0.0021 mg/L
same,MIC,C. albicans 93-1226,0.0025 mg/L
same,anti-Candida activity (ranking by backbone length X),Candida,greatest anti-Candida activity
same,IC50,E. faecalis 29212,7.5 mg/L
same,MIC,E. faecalis 29212,12.5 mg/L
same,IC50,S. cerevisiae AD1-9,0.18 mg/L
same,MIC,S. cerevisiae AD1-9,0.25 mg/L
same,IC50,C. albicans #64,0.00145 mg/L
same,MIC,C. albicans #64,0.005 mg/L
same,IC50,C. tropicalis 750,0.00467 mg/L
same,MIC,C. tropicalis 750,0.005 mg/L
same,IC50,S. cerevisiae 2229-5C,0.5 to 1.0 mg/L
same,MIC,S. cerevisiae 2229-5C,1 mg/L
same,IC50,S. aureus 29213,31.6 mg/L
same,MIC,S. aureus 29213,50 mg/L
same,IC50,C. krusei 6258,0.0419 mg/L
same,MIC,C. krusei 6258,0.05 mg/L
same,IC50,C. krusei 97-1037,0.0261 mg/L
same,MIC,C. krusei 97-1037,0.05 mg/L
same,IC50,C. tropicalis 623-20,0.00296 mg/L
same,MIC,C. tropicalis 623-20,0.005 mg/L
same,MIC,C. albicans DSY1024; C. albicans DSY1024,0.0025 mg/L
same,IC50,C. glabrata 95-2421,0.00825 mg/L
same,MIC,C. glabrata 95-2421,0.0125 mg/L
same,IC50,C. albicans UTR-14,0.00364 mg/L
same,MIC,C. albicans UTR-14,0.0025 mg/L
same,MIC,E. coli 700,>200 mg/L
same,IC50,A. fumigatus 8001,50 to 100 mg/L
same,MIC,A. fumigatus 8001,200 mg/L
same,MIC,C. albicans SC5314; C. albicans SC5314,0.000625 mg/L and 0.00125 mg/L
same,IC50,C. tropicalis 97-1037,0.00368 mg/L
same,MIC,C. tropicalis 97-1037,0.005 mg/L
same,IC50,HFF cells,12 mg/L
same,IC50,C. glabrata 90030,0.0125 to 0.025 mg/L
same,MIC,C. glabrata 90030,0.005 mg/L
same,MIC,T. rubrum; [4],0.001 mg/L
same,MIC,T. tonsurans; [5],0.001 mg/L
same,MIC,M. canis; [6],0.001 mg/L
same,MIC,C. keyfer 46764,0.01 mg/L
same,IC50,C. albicans A26,0.0011 mg/L
same,"IC50 values, all tested Candida strains",[1],0.00035 to 0.042 mg/L
same,MIC,T. mentagrophytes; [7],0.001 mg/L
same,IC50,C. glabrata 95-2425,0.00313 to 0.00625 mg/L
same,MIC,C. glabrata 95-2425,0.0125 mg/L
O=C(O)CCCCCC=CC#CC#Cc1ccco1 [Compound 2],IC50,C. albicans DSY1024; C. albicans DSY1024 (Table 4),1.817 mg/L
same,MIC,C. albicans DSY1024; C. albicans DSY1024 (Table 4),3.125 mg/L
same,inhibition of growth of strain SC5314,C. albicans SC5314,able to inhibit growth
same,IC50,C. albicans SC5314; C. albicans SC5314 (Table 4),2.592 mg/L
same,MIC,C. albicans SC5314; C. albicans SC5314 (Table 4),3.125 mg/L
O=C(O)CCCCCCC=CC#CC#Cc1ccco1 [Compound 3],IC50,C. albicans DSY1024; C. albicans DSY1024 (Table 4),0.503 mg/L
same,MIC,C. albicans DSY1024; C. albicans DSY1024 (Table 4),1 mg/L
same,MIC,T. rubrum; [4],8.0 mg/L
same,MIC,T. tonsurans; [5],2.0 mg/L
same,MIC,M. canis; [6],2.0 mg/L
same,MIC,T. mentagrophytes; [7],2.0 mg/L
O=C(O)CCCCCCC/C=C\C#CC#Cc1ccco1 [Compound 5],anti-Candida activity (ranking by backbone length X),Candida,greatest anti-Candida activity
same,IC50,C. albicans DSY1024; C. albicans DSY1024 (Table 4),0.0039 mg/L
same,MIC,C. albicans DSY1024; C. albicans DSY1024 (Table 4),0.0078 mg/L
C/C=C\C#CC#C/C=C/C(O)CCCCCCCC(=O)O (stereo not drawn) [Compound 6],IC50,C. albicans DSY1024; C. albicans DSY1024 (Table 4),11.3 mg/L
same,MIC,C. albicans DSY1024; C. albicans DSY1024 (Table 4),12.5 mg/L
same,inhibition of growth of strain SC5314,C. albicans SC5314,able to inhibit growth
same,IC50,C. albicans SC5314; C. albicans SC5314 (Table 4),8.5 mg/L
same,MIC,C. albicans SC5314; C. albicans SC5314 (Table 4),12.5 mg/L
COC(=O)CCCCCCC/C=C\C#CC#Cc1ccco1 [Compound 7],anti-Candida activity (ranking by backbone length X),Candida,greatest anti-Candida activity
same,IC50,C. albicans DSY1024; C. albicans DSY1024 (Table 4),0.19 mg/L
same,MIC,C. albicans DSY1024; C. albicans DSY1024 (Table 4),0.25 mg/L
same,inhibition of growth of strain SC5314,C. albicans SC5314,able to inhibit growth
same,IC50,C. albicans SC5314; C. albicans SC5314 (Table 4),0.221 mg/L
same,MIC,C. albicans SC5314; C. albicans SC5314 (Table 4),0.25 mg/L
same,MIC,T. rubrum; [4],0.125 mg/L
same,MIC,T. tonsurans; [5],0.125 mg/L
same,MIC,M. canis; [6],0.125 mg/L
same,MIC,T. mentagrophytes; [7],0.125 mg/L
"CN(C/C=C/C#CC(C)(C)C)Cc1cccc2ccccc12 [Terbinafine, reference compound]",MIC,"T. rubrum; Trichophyton rubrum, 96 h",0.002 mg/L
same,MIC,"T. tonsurans; Trichophyton tonsurans, 96 h",0.015 mg/L
same,MIC,"M. canis; Microsporum canis, 96 h",0.015 mg/L
same,MIC,"T. mentagrophytes; Trichophyton mentagrophytes, 96 h",0.004 mg/L
OC(Cn1cncn1)(Cn1cncn1)c1ccc(F)cc1F [fluconazole],percent survival after 30 days,[2],about 30%
same,percent survival after 20 days,[3],0%

# — patent publication US6541506B1, “Antifungal enediynes” (Phytera Incorporated, priority 1999, dated 2003)
